Drawing on ChEMBL document CHEMBL1126649, “Development of a pharmacophore for inhibition of human liver cytochrome P-450 2D6: molecular modeling and inhibition studies” (J Med Chem, 1993), this text covers Ki for 24 molecules.

In data set [1] the target is T1, Cytochrome P450 2D6 (Homo sapiens, UniProt P10635). As to the kind of experiment: Inhibitory effect on Bufuralol 1'-hydroxylation by human liver microsomes (Ki = apparent inhibition constant). The format is ADME, Microsome.
For data set [2], the target named is T1, Cytochrome P450 2D6. Nature of the data set: Inhibitory constant for cytochrome P450 2D6. The class given is ADME.
In data set [3] the target is T1, Cytochrome P450 2D6. As to the kind of experiment: Apparent inhibitory constant (Ki) for Bufuralol 1'-hydroxylation by human liver microsomes. The class given is ADME, Microsome. (Liver microsomes are a subcellular fraction often used to study metabolism.)
For data set [4], the target named is T1, Cytochrome P450 2D6.
For data set [5], the target named is T1, Cytochrome P450 2D6. Nature of the data set: Inhibition of partially purified cytochrome P450 2D6 1'-hydroxybufuralol formation.
For data set [6], the target named is T1, Cytochrome P450 2D6. The source holds these as a separate data set.
The target of data set [7] is T1, Cytochrome P450 2D6. The source holds these as a separate data set.
The target of data set [8] is T1, Cytochrome P450 2D6. This is another data set of the same source.
Data set [9] addresses T1, Cytochrome P450 2D6. This is another data set of the same source.
Data set [10] addresses T1, Cytochrome P450 2D6. The source holds these as a separate data set.

T1 sequence (P10635 whole entry): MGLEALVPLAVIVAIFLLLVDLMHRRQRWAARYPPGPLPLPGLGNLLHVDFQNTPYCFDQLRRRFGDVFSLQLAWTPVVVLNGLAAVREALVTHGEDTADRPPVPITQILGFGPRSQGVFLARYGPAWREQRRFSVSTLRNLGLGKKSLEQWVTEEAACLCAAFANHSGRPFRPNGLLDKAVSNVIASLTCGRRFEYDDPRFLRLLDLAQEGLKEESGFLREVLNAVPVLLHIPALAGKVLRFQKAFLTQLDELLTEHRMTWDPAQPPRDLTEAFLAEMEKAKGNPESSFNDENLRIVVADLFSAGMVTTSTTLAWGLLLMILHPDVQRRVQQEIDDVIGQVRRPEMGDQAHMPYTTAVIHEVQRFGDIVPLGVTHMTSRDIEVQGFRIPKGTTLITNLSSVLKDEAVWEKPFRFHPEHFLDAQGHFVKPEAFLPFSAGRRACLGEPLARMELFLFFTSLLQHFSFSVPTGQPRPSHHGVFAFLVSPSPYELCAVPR

Regarding `C=CC1CN2CCC1CC2C(=O)c1ccnc2ccc(OC)cc12` (centres undefined), the Ki at Cytochrome P450 2D6 [1] was 0.72 µM.

`CN1[C@@H](CC(=O)c2ccccc2)CCC[C@H]1C[C@H](O)c1ccccc1` [LOBELINE] had a Ki at Cytochrome P450 2D6 [2] of 0.12 µM.

For `c1ccc2c(c1)[n-]c1c3[n+](ccc12)CC1CCCCC1C3` (centres undefined) [SEMPERVIRINE], the Ki at Cytochrome P450 2D6 [1] came to 9.7 µM.

In the case of `CC[C@H]1CN2CC[C@H]1C[C@H]2[C@H](O)c1ccnc2ccc(OC)cc12` [HYDROQUININE], the Ki at Cytochrome P450 2D6 [1] was 4 µM.

On to `O=C(O)[C@H]1[C@H]2C[C@H]3c4[nH]c5ccccc5c4CCN3C[C@@H]2CC[C@H]1O`, for which the Ki at Cytochrome P450 2D6 [1] was 6.3 µM.

Take RAUWOLFIA SERPENTINA: the Ki at Cytochrome P450 2D6 [3] and on Cytochrome P450 2D6 [4] was 0.0046 µM throughout.

As to `C=CC1CN2CCC1C[C@H]2[C@H](O)c1ccnc2ccc(Cl)cc12` (some centres undefined), the Ki on Cytochrome P450 2D6 [1] stood at 3.5 µM.

Regarding `CCC1CN2CCC1CC2[C@@H](O)c1ccnc2ccc(OC)cc12` (some centres undefined) [DIHYDROQUINIDINE], the Ki on Cytochrome P450 2D6 [1] is 0.066 µM.

In the case of `COC(=O)C1=CO[C@H](C)[C@H]2CN3CCc4c([nH]c5ccccc45)[C@@H]3C[C@H]12`, on Cytochrome P450 2D6 [1], the Ki stood at 0.017 µM.

As for `COC(=O)C1=CNC(C)C2CN3CCc4c([nH]c5ccccc45)[C@@H]3C[C@H]12` (some centres undefined), the Ki at Cytochrome P450 2D6 [1] amounted to 2.9 µM.

Take `C=CC1CN2CCC1C[C@@H]2[C@@H](O)c1ccnc2ccccc12` (stereo in doubt; 9b): the Ki at Cytochrome P450 2D6 [3] was determined as 3.5 µM; on Cytochrome P450 2D6 [5] it was 2.6 µM; on Cytochrome P450 2D6 [6] it was 1 µM; at Cytochrome P450 2D6 [7] it was 3.5 µM; on Cytochrome P450 2D6 [8], 3.5 µM; on Cytochrome P450 2D6 [9], 5.4 µM.

In turn, `CC(C)N1CCC(c2ccccc2)(c2ccccc2)CC1` [PRODIPINE] showed a Ki at Cytochrome P450 2D6 [2] of 0.0048 µM.

For the molecule `C=CC1CN2CCC1C[C@@H]2[C@@H](O)c1ccnc2ccccc12` (stereo in doubt; 10b), the Ki on Cytochrome P450 2D6 [1] is 7.5 µM; on Cytochrome P450 2D6 [5], 25 µM; at Cytochrome P450 2D6 [10] it was 9.3 µM; at Cytochrome P450 2D6 [7], 7.3 µM; at Cytochrome P450 2D6 [8], 7.5 µM; on Cytochrome P450 2D6 [9], 16 µM.

Take `C=CC1C[N+]2(c3ccccc3)CCC1CC2C(O)c1ccnc2ccc(OC)cc12` (centres undefined): the Ki on Cytochrome P450 2D6 [1] turned out to be 25 µM.

With `COc1ccc2ncccc2c1`, the Ki on Cytochrome P450 2D6 [1] was more than 1000 µM.

Regarding `C=CC1CN2CCC1C[C@@H]2[C@@H](O)c1ccnc2ccc(Cl)cc12` (some centres undefined), the Ki on Cytochrome P450 2D6 [1] was determined as 0.52 µM.

Regarding `CCC1CN2CCC1CC2C(O)c1ccnc2ccccc12` (centres undefined), the Ki was found to be 2.8 µM on Cytochrome P450 2D6 [7], 1.6 µM at Cytochrome P450 2D6 [8] and 3.2 µM at Cytochrome P450 2D6 [9].

`Cc1nccc2c1[nH]c1ccccc12` [HARMAN]: on Cytochrome P450 2D6 [1], the Ki amounted to 86 µM.

For the molecule `COC(=O)C1=CO[C@@H](C)[C@H]2C[n+]3ccc4c([nH]c5ccccc54)c3C[C@H]12`, the Ki at Cytochrome P450 2D6 [1] came to 2.2 µM.

Turning to `COC(=O)C1=CO[C@@H](C)[C@@H]2CN3CCc4c([nH]c5ccccc45)[C@@H]3C[C@H]12` [TETRAHYDROALSTONINE], at Cytochrome P450 2D6 [1], the Ki turned out to be 1.1 µM.

For `COc1ccc2[nH]cc(CCO)c2c1`, the Ki on Cytochrome P450 2D6 [1] was determined as 100 µM.

Consider `COC(=O)C1=CO[C@@H](C)[C@H]2C=[N+]3CCc4c([nH]c5ccccc45)[C@@H]3C[C@H]12` [CATHENAMINE], for which the Ki on Cytochrome P450 2D6 [1] is 3.2 µM.

For the molecule `CCC1CN2CCC1CC2[C@H](O)c1ccnc2ccccc12` (some centres undefined), the results for the Ki at Cytochrome P450 2D6 [7], at Cytochrome P450 2D6 [8] and on Cytochrome P450 2D6 [9] were 9.6 µM, 8 µM and 24 µM, respectively.

Turning to `CC1OC=C(CO)[C@H]2C[C@H]3c4[nH]c5ccccc5c4CCN3CC12` (some centres undefined), the Ki on Cytochrome P450 2D6 [1] came out at 1.1 µM.
